# Where “and” joins values, the source holds several entries; their conditions need not be identical. Equal entries are not always repeated. Structures can show the parent of a compound that is named as a salt. Where two headings read alike, the source gives them in different places.
# Tests used:
# His6-AspH315-758 (AspH) = molecular target: T1, His6-AspH315-758 (AspH) (Homo sapiens, UniProt Q12797); assay: Differential scanning fluorimetry (DSF) assay, shift of AspH melting temperature; assay type: binding; details: 20 μM inhibitor, 2 μM AspH, 50 μM NiCl2, with respect to DMSO controls, n = 2, mean ± SD; for ΔTm at 20 µM: read-out: Tm-shift (ΔTm) of AspH melting temperature [°C]
# T1 construct: freshly thawed His6-AspH315-758 was added; made in house; host or cells: E. coli BL21 (DE3), pET-28a(+) vector
# T1 sequence (Q12797 315-758): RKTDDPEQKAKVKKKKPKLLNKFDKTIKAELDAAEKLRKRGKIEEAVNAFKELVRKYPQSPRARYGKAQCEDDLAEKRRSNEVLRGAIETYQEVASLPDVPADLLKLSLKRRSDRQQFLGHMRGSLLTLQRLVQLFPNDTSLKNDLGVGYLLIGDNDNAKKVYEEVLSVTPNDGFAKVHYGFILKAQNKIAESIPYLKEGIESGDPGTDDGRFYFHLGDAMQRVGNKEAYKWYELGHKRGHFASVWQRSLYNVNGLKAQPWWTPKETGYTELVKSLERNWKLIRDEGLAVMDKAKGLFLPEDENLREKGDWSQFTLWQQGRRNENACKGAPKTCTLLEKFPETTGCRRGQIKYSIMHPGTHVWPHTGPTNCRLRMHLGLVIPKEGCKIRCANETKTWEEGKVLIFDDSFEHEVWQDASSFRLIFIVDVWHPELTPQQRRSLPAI
# [1] = molecular target: T2, His6-AspH315–758 (human aspartate/asparagine-β-hydroxylase, AspH) (Homo sapiens, UniProt Q12797); assay: SPE-MS AspH inhibition assay (LOPAC screen at fixed 20 μM and IC50 dose-response), hydroxylation of cyclic peptide hFX-CP101–119; assay type: biochemical
# T2 construct: N-Terminally His6-tagged human AspH315–758 (His6-AspH315–758) was produced in E. coli BL21 (DE3) cells; made in house; host or cells: E. coli BL21 (DE3), pET-28a(+) vector
# T2 sequence (Q12797 315-758): T1 sequence (Q12797 315-758)
# PHD2 = details: read-out: IC50 metal ion, PHD2, cited from earlier work
# KDM4E = details: read-out: IC50 metal ion, KDM4E, cited from earlier work
# KDM4A = details: read-out: IC50 metal ion, KDM4A, cited from earlier work
# FIH = details: read-out: IC50 metal ion, FIH [μM] (Ki values are shown), cited from earlier work
# TauD = details: read-out: IC50 metal ion, TauD; cited from earlier work
# [2] = AspH activity, fixed compound concentration 20 μM, initial LOPAC screen, 0.5%v/v DMSO, read-out: Inhibition at 20 µM [%]
# [3] = LOPAC Plate 4, compound at 20 uM, substrate conversion
# [4] = 50 nM AspH, 2.0 μM Fe(II), Zn(OAc)2, NiSO4, CoCl2, MnCl2, CaCl2 as metal sources, n = 2, mean ± SD, read-out: IC50 metal ion, AspH
# [5] = 5 μM Fe(II), Ki values are shown
# [6] = 50 nM His6-AspH315–758, 1.0 μM hFX-CP101–119, 3 μM 2OG, 2 μM Fe(II), 50 mM HEPES pH 7.5, 20 °C, mean ± SD, n = 2 (2,4-PDCA n = 10), read-out: IC50
# [7] = LOPAC compound at fixed 20 uM, plate 1, normalised to DMSO and 2,4-PDCA controls
# [8] = LOPAC compound at fixed 20 uM, substrate conversion, plate 1
# [9] = LOPAC compound at 20uM, plate 2, conversion of substrate peptide
# [10] = LOPAC compound at 20uM, plate 3, conversion of substrate peptide
# [11] = LOPAC compound at 20uM, plate 2, normalised to DMSO and 2,4-PDCA controls
# [12] = plate 5 (Pfitzer), test compounds at fixed 20 μM
# [13] = LOPAC Plate 4, compound at 20 uM
compound,measurement,setting,value
"O=C(O)c1ccnc(C(=O)O)c1 [2,4-PDCA, pyridine-2,4-dicarboxylic acid]",ΔTm at 20 µM,His6-AspH315-758 (AspH),3.5 ± 0.6 °C
"CCOc1nc2cccc(C(=O)OC(C)OC(=O)OC3CCCCC3)c2n1Cc1ccc(-c2ccccc2-c2nnn[nH]2)cc1 (centres unmarked) [Candesartan cilexetil, reference compound]",inhibition at 20 µM,[1]; [2],100%
same,% conversion,[1]; [3],2.30%
same,Tm-shift (ΔTm) of AspH melting temperature [°C],His6-AspH315-758 (AspH),< 0.3 °C
same,ΔTm at 20 µM,His6-AspH315-758 (AspH),0.2 ± 0.1 °C
O=C(O)c1ccc(O)c2ncccc12 [IOX1],Tm-shift (ΔTm) of AspH melting temperature [°C],His6-AspH315-758 (AspH),2.8 ± 0.2 °C and ~ 2.8 °C
"[Cl][Mn][Cl] [Mn(II), MnCl2]",IC50,PHD2; 2 μM PHD2 and 20 μM Fe(II),21 µM
same,IC50,[1]; [4],5.06 ± 1.02 µM
same,Reduction of AspH inhibition compared to Zn(II),"[1]; ratio of IC50 values against AspH, Table 2",approximately 100 fold
same,IC50,KDM4E; 2 μM KDM4 and 10 μM Fe(II),224 µM
same,IC50,KDM4A; 2 μM KDM4 and 10 μM Fe(II),101 µM
same,Ki,FIH; [5],10 ± 1 µM
"O=C(O)CNC(=O)C(=O)O [NOG, N-oxalylglycine, reference compound]",IC50,[1]; [6],1.09 ± 0.29 µM
same,ΔTm at 20 µM,His6-AspH315-758 (AspH),2.8 ± 0.3 °C
"O=S(=O)([O-])[O-].[Ni+2] [Ni(II), NiSO4]",IC50,PHD2,185 µM
same,IC50,"[1]; read-out: IC50 metal ion, AspH",0.17 ± 0.08 µM
same,IC50,KDM4E,15.6 µM
same,IC50,TauD,0.6 to 1 µM
same,IC50,KDM4A,9.4 µM
same,Ki,FIH,4 ± 1 µM
"Cc1ccc(-n2sc3ccccc3c2=O)cc1 [PBIT, 2-(4-methylphenyl)-1,2-benzisothiazol-3(2 H)-one, reference compound]",IC50,[1]; [6],0.14 ± 0.02 µM
same,Tm-shift (ΔTm) of AspH melting temperature [°C],His6-AspH315-758 (AspH),-15.2 ± 1.4 °C and ~ −15.2 °C
"CC(=O)[O-].CC(=O)[O-].[Zn+2] [Zn(II), Zn(OAc)2]",IC50,PHD2; 2 μM PHD2 and 20 μM Fe(II),9.3 µM
same,IC50,[1]; [4],~0.05 µM and 0.05 µM
same,IC50,KDM4E; 2 μM KDM4 and 10 μM Fe(II),13 µM
same,IC50,KDM4A; 2 μM KDM4 and 10 μM Fe(II),7.8 µM
same,Ki,FIH; [5],0.5 ± 0.1 µM
"CC(=O)OCC1=C(C(=O)[O-])N2C(=O)[C@@H](NC(=O)CCC[C@@H](N)C(=O)[O-])[C@H]2SC1.[Zn+2] [cephalosporin C zinc salt, reference compound]",Inhibition at 20 µM [%],[1],98.1%
same,Plate 1 (% conversion),[1],2.94%
same,IC50,"[1]; pH 7.5, read-out: IC50",~0.07 µM and 0.07 µM
NC/C=C\C(=O)O [cis-4-Aminocrotonic acid],Plate 1 (% inhibition),[1]; [7],-8.37%
same,Plate 1 (% conversion),[1]; [8],38.68%
OCCN1CCN(CC/C=C2/c3ccccc3Sc3ccc(C(F)(F)F)cc32)CC1 [cis-(Z)-Flupenthixol dihydrochloride],Plate 2 (% conversion),[1]; [9],67.44%
same,inhibition at 20 µM,"[1]; LOPAC compound at 20uM, plate 2, normalised to DMSO and 2,4-PDCA controls, read-out: Plate 2 (% inhibition)",-94%
C#CC(N)CCC(=O)O (centres unmarked) [gamma-Acetylinic GABA],Plate 1 (% inhibition),[1]; [7],-4.92%
same,Plate 1 (% conversion),[1]; [8],37.52%
CC(C(=O)O)c1ccc(CC2CCCC2=O)cc1 (centres unmarked) [loxoprofen],Plate 3 (% conversion),[1]; [10],35.95%
NC(N)=NCc1cccc(I)c1.NC(N)=NCc1cccc(I)c1.O=S(=O)(O)O [m-Iodobenzylguanidine hemisulfate],Plate 3 (% conversion),[1]; [10],36.94%
Cl.Nc1cc(Cl)c(N=C2NCCN2)c(Cl)c1 [p-Aminoclonidine hydrochloride],Plate 1 (% inhibition),[1]; [7],-0.11%
same,Plate 1 (% conversion),[1]; [8],35.91%
"O=C1C=CC(=O)C=C1 [p-Benzoquinone, reference compound]",Inhibition at 20 µM [%],[1],99.3%
same,Plate 1 (% conversion),[1],2.52%
same,Plate 1 (% inhibition),[1],99.30%
N[C@@H](Cc1ccc(F)cc1)C(=O)O [p-Fluoro-L-phenylalanine],Plate 2 (% conversion),[1]; [9],36.49%
same,Plate 2 (% inhibition),[1]; [11],-1.58%
Cl.Clc1cc(I)cc(Cl)c1NC1=NCCN1 [p-Iodoclonidine hydrochloride],Plate 3 (% conversion),[1]; [10],40.33%
COc1ccccc1N1CCN(CCN(C(=O)c2ccc(F)cc2)c2ccccn2)CC1.Cl.Cl [p-MPPF dihydrochloride],Plate 3 (% conversion),[1]; [10],43.58%
"O=c1c(O)c(-c2ccc(O)c(O)c2)oc2cc(O)cc(O)c12 [quercetin, reference compound]",IC50,[1]; [6],0.24 ± 0.01 µM
same,inhibition at 20 µM,[1]; [2],97.8%
same,% conversion,[1]; [3],3.10%
same,inhibition at 20 µM,"[1]; LOPAC Plate 4, compound at 20 uM, read-out: % inhibition",97.8%
"CCCc1nn(C)c2c(=O)[nH]c(-c3cc(S(=O)(=O)N4CCN(C)CC4)ccc3OCC)nc12 [sildenafil, reference compound]",Plate 5 (% conversion),[1],6.67%
same,IC50,[1]; [6],2.45 ± 0.36 µM
same,inhibition at 20 µM,[1]; [2],97.8%
same,Plate 5 (% inhibition),[1]; [12],87.11%
(+)-Catechin Hydrate,Plate 1 (% inhibition),[1]; [7],90.19%
same,Plate 1 (% conversion),[1]; [8],5.58%
(+)-Cyclazocine,Plate 2 (% conversion),[1],35.78%
same,Plate 2 (% inhibition),[1]; 20 µM,0.54%
(±)-Atenolol,Plate 1 (% inhibition),[1]; [7],7.50%
(±)-Butaclamol hydrochloride,Plate 1 (% inhibition),[1]; [7],-27.23%
same,Plate 1 (% conversion),[1]; [8],45.02%
BMS-193885,% conversion,[1]; [3],32.96%
CCT007093,% inhibition,[1]; [13],2.20%
same,% conversion,[1]; [3],35.72%
CP-316819,Plate 5 (% conversion),[1],34.19%
same,Plate 5 (% inhibition),[1],6.23%
CP-335963,% conversion,[1],27.86%
same,Plate 5 (% inhibition),[1],-8.78%
CoCl2 [Co(II)],IC50,PHD2,48.3 µM
same,IC50,"[1]; read-out: IC50 metal ion, AspH",0.39 ± 0.13 µM
same,IC50,KDM4E,9.4 µM
same,IC50,TauD,1 to 3.5 µM
same,IC50,KDM4A,5.7 µM
same,Ki,FIH,1 ± 0.4 µM
KRM-III,Plate 2 (% conversion),[1]; [9],30.60%
same,Plate 2 (% inhibition),[1]; [11],15.99%
"LY-310,762 hydrochloride",Plate 3 (% conversion),[1]; [10],45.55%
Maraviroc,Plate 1 (% conversion),[1],50.71%
same,Plate 1 (% inhibition),[1],-44.18%
same,Plate 5 (% conversion),[1],49.04%
same,Plate 5 (% inhibition),[1],-37.39%
PD-184161,% inhibition,[1]; [13],6.57%
same,% conversion,[1]; [3],34.23%
same,Plate 5 (% inhibition),[1]; [12],40.35%
same,Plate 5 (% conversion),"[1]; plate 5 (Pfitzer), test compounds at fixed 20 μM, mean conversion DMSO 32.88",22.58%
Phenylbenzene-omega-phosphono-alpha-amino acid,% conversion,[1],25.21%
Picrotoxin,Plate 3 (% conversion),[1],36.08%
Rhodblock 6,Plate 1 (% inhibition),[1]; [7],-3.70%
same,Plate 1 (% conversion),[1]; [8],37.11%
Ro 8-4304,% inhibition,[1]; [13],-13.60%
same,% conversion,[1]; [3],41.11%
Ro 20-1724,Plate 1 (% inhibition),[1]; [7],-0.20%
same,Plate 1 (% conversion),[1]; [8],35.94%
Ro 61-8048,Plate 3 (% conversion),[1]; [10],30.86%
Ro 90-7501,Plate 3 (% conversion),[1]; [10],39.97%
trans-(±)-ACPD,Plate 1 (% conversion),[1],37.46%
same,Plate 1 (% inhibition),[1],-4.72%

# Reference: article PMC7251097, “Aspartate/asparagine-β-hydroxylase: a high-throughput mass spectrometric assay for discovery of small molecule inhibitors” (Scientific Reports, 2020)
